Laboratory results from patent US9724544B2, “Vitamin D promoting sunscreen” (priority 2009, dated 2017).

System: not listed separately
Experiment: UV absorption spectra (absorbance range, maxima, critical wavelength) of UV filters and other ingredients
Assay type: physicochemical
Conditions: over time under the sun
For `COc1ccc(C(=O)CC(=O)c2ccc(C(C)(C)C)cc2)cc1` [Avobenzone, 4-tert-butyl-4′-methoxy-dibenzoylmethane], the “ability to absorb radiation in the 290 to 315 nm range over time” value was “increases over time”.

System: primary human keratinocytes
Experiment: not given
Conditions: De Haes et al. 2005; cited from earlier work
In the case of `C=C1/C(=C\C=C2/CCC[C@]3(C)[C@@H]([C@H](C)CCCC(C)(C)O)CC[C@@H]23)C[C@@H](O)C[C@@H]1O` [1,25(OH)2D3, 1,25-dihydroxyvitamin D3], the “protection against UVB-induced DNA damage” value is listed as “protects”.

System: not given
Experiment: not given
Conditions: approximately 295 to 315 nm; cited from earlier work
In the case of “4-Bis(polyethoxy)para-aminobenzoic acid polyethoxyethyl ester [PEG-25 PABA]”, the “absorption in the vitamin D producing range” value (shortened to “absorption”) is given as “minimal absorption”.
For `O=C(c1ccc(O)cc1O)c1ccc(O)cc1O` [2,2^1,4,4′-Tetrahydroxybenzophenone], the “absorption” value is listed as “high percentage”.
In the case of `COc1ccc(C(=O)c2ccc(OC)cc2O)c(O)c1` [2,2′-Dihydroxy-4,4′-dimethoxybenzophenone], the “absorption” value is given as “high percentage”.
For `O=C(c1ccccc1)c1ccc(O)cc1O` [2,4-Dihydroxybenzophenone], the “absorption” value is listed as “high percentage”.
For `CCCCCCCCOc1ccc(C(=O)c2ccccc2)c(O)c1` [2-Hydroxy-4-(Octyloxy)Benzophenone], the “absorption” value is listed as “high percentage”.
In the case of `Cc1ccc(C=C2C(=O)C3(C)CCC2C3(C)C)cc1` (centres unmarked) [4-Methylbenzylidene camphor, 3-(4-methylbenzyliden)camphor], the “absorption” value is listed as “high percentage”.
For `Nc1ccc(C(=O)O)cc1` [Aminobenzoic acid, 4-aminobenzoic acid], the “absorption” value is given as “high percentage”.
For `COc1ccc(C(=O)CC(=O)c2ccc(C(C)(C)C)cc2)cc1` [Avobenzone, 4-tert-butyl-4′-methoxy-dibenzoylmethane], the “absorption” value is listed as “relative lack of absorption”.
In the case of `CCCCC(CC)COc1ccc(-c2nc(-c3ccc(OC)cc3)nc(-c3ccc(OCC(CC)CCCC)cc3O)n2)c(O)c1` (centres unmarked) [Bemotrizinol, bis-ethylhexyloxyphenol methoxyphenyl triazine], the “absorption” value is listed as “high percentage”.
In the case of `O=S(=O)([O-])c1cc(S(=O)(=O)O)cc2[nH]c(-c3ccc(-c4nc5c(S(=O)(=O)[O-])cc(S(=O)(=O)O)cc5[nH]4)cc3)nc12.[Na+].[Na+]` [Bisdisulizole disodium, disodium phenyl dibenzimidazole tetrasulfonate], the “absorption” value is given as “relative lack of absorption”.
For `CCOCCOC(=O)C=Cc1ccc(OC)cc1` [Cinoxate, 2-ethoxyethyl p-methoxycinnamate], the “absorption” value is given as “high percentage”.
For `CC(=O)C=CC=C1C2CCC(C2)C1(C)C` (centres unmarked) [Digalloyl trioleate, 5-(3,3-Dimethyl 2 norbornyliden)-3penten-2-one], the “absorption” value is given as “high percentage”.
In the case of `CCCCC(CC)COC(=O)c1ccc(Nc2nc(Nc3ccc(C(=O)OCC(CC)CCCC)cc3)nc(Nc3ccc(C(=O)OCC(CC)CCCC)cc3)n2)cc1` (centres unmarked) [Ethylhexyl Triazone], the “absorption” value is given as “high percentage”.
In the case of `Nc1ccc(C(=O)OCC(O)CO)cc1` (centres unmarked) [Glyceryl Aminobenzoate, glyceryl 1-(4-aminobenzoate)], the “absorption” value is listed as “high percentage”.
In the case of `CC1CC(OC(=O)c2ccccc2O)CC(C)(C)C1` (centres unmarked) [Homosalate, 3,3,5-trimethylcyclohexyl salicylate], the “absorption” value is listed as “minimal to moderate”.
For `CCCCC(CC)COC(=O)c1ccc(Nc2nc(Nc3ccc(C(=O)NC(C)(C)C)cc3)nc(Nc3ccc(C(=O)OCC(CC)CCCC)cc3)n2)cc1` (centres unmarked) [Iscotrizinol, diethylhexyl butamido triazone], the “absorption” value is given as “high percentage”.
In the case of `COc1ccc(C=CC(=O)OCCC(C)C)cc1` [Isoamyl p-methoxycinnamate], the “absorption” value is listed as “high percentage”.
In the case of `COc1ccc(C(=O)c2ccc(C)cc2)c(O)c1` [Mexenon, 2-hydroxy-4-methoxy-4′-methyl-benzophenone], the “absorption” value is given as “minimal to moderate”.
For `CCCCC(CC)COC(=O)c1ccccc1O` (centres unmarked) [Octisalate, 2-ethylhexyl salicylate], the “absorption” value is given as “minimal to moderate”.
For `CCCCC(CC)COC(=O)C(C#N)=C(c1ccccc1)c1ccccc1` (stereo not drawn) [Octocrylene, 2-ethylhexyl alpha-cyano-beta-phenylcinnamate], the “absorption” value is given as “minimal to moderate”.
In the case of `COc1ccc(C(=O)c2ccccc2)c(O)c1` [Oxybenzone, 2-hydroxy-4-methoxybenzophenone], the “absorption” value is given as “minimal to moderate”.
For `CCCCC(CC)COC(=O)c1ccc(N(C)C)cc1` (centres unmarked) [Padimate-0, 2-ethylhexyl 4-dimethylaminobenzoate], the “absorption” value is listed as “high percentage”.
For `CCCCCOC(=O)c1ccc(N(C)C)cc1` [Padimate-A, amyl p-dimethylaminobenzoate], the “absorption” value is given as “high percentage”.
In the case of `COc1cc(O)c(C(=O)c2ccccc2)cc1S(=O)(=O)O` [Sulisobenzone, 2-hydroxy-4-methoxybenzophenone-5-sulfonic acid], the “absorption” value is listed as “minimal to somewhat moderate”.
In the case of `CCCCCCOC(=O)c1ccccc1C(=O)c1ccc(N(CC)CC)cc1O` [Uvinul A Plus, diethylamino hydroxybenzoyl hexyl benzoate], the “absorption” value is listed as “relative lack of absorption”.

Same assay, conditions: dissolved in alcohol; cited from earlier work
In the case of `Nc1ccc(C(=O)O)cc1` [Aminobenzoic acid, 4-aminobenzoic acid], the maximum absorbance is given as 289 nm.

Same assay, conditions: dissolved in water; cited from earlier work
In the case of `Nc1ccc(C(=O)O)cc1` [Aminobenzoic acid, 4-aminobenzoic acid], the maximum absorbance is listed as 278 nm.
